# In patent publication US20120058099A1, “USE OF HYPOXANTHINE FOR PROMOTION OF NEURONAL OUTGROWTH” (CHILDREN'S MEDICAL CENTER CORPORATION, priority 2009, published 2012):
# “Also recorded” adds a separate entry of the source.
# What was measured:
# [1] = test system: embryonic cortical neurons; assay: Embryonic cortical neuron axon outgrowth, competition with 6-thioguanine (FIG. 1); assay type: cell-based, rat; details: 6-TG 0-80 μM added 1 hour before hypoxanthine or inosine, 3 days growth
# Protocol: FIG. 1 contains two separate sets of bar graphs and line graphs representative of data obtained from embryonic cortical neuron competition experiments.
# (§1) These experiments were done on embryonic cortical neurons. The forebrains of […] rat pups were dissected and plated in media containing serum. After 3 hours the medium was exchanged for Medium E (Irwin et al. 2006) (Proc Nati Acad Sci U S A. 2006 Nov 28;103(48):18320-5). The cells were treated the following day with inosine or hypoxanthine, in the presence and absence of the indicated amount of the inhibitor 6-thioguanine (6-TG), and allowed to grow for 3 days. The 6-TG was added 1 hour before the hypoxanthine or inosine. Following the three days of growth, the cells were fixed and stained with Taul antibody and a fluorescent secondary antibody. Axons were then counted. […] FIG. 1 presents the data obtained.
# [2] = test system: embryonic cortical neurons; assay: Embryonic cortical neuron outgrowth visualised by Tau1/MAP2 staining (FIG. 3); assay type: cell-based, rat; details: for axonal outgrowth (Tau1/MAP2 staining): BDNF 2 ng/ml or hypoxanthine 100 μM, FIG. 3
# Description: FIG. 3 is a series of photographs of embryonic cortical neurons grown in the presence of the indicated factors (BDNF, hypoxanthine, BDNF+6-thioguanine, BDNF+6-thioguanine+hypoxanthine), which have then been stained with either antibodies to Taul, antibodies to MAP2, or both antibodies to Taul and antibodies to MAP2, in order to visualize neuronal outgrowth.
# as §1
# Embryonic cortical neurons were grown in the presence of BDNF (2 ng/ml), hypoxanthine (100 μM), BDNF (2 ng/ml)+6-thioguanine (20 μM) , or BDNF (2 ng/ml)+6-thioguanine (20 μM)+hypoxanthine (100 μM), as described above. The cells were then fixed and stained with either antibodies to Taul, antibodies to map2, or both antibodies to Taul and antibodies to map2, and corresponding fluorescent secondary antibodies, in order to visualize axonal outgrowth.
# [3] = test system: embryonic cortical neurons; assay: Embryonic cortical neuron axonal outgrowth with or without BCX-34 (FIG. 2); assay type: cell-based, rat; details: inosine or hypoxanthine 100 μM, BDNF 2 ng/ml
# Protocol: as §1
# In a similar experiment, embryonic cortical neurons were given brain derived neurotrophic factor (BDNF) (2 ng/ml), inosine, or hypoxanthine (100 μM). […] The cells were then scored for neuron axonal outgrowth. The data collected is represented in FIG. 2.
# [4] = target: Mst3b (Homo sapiens, UniProt Q9Y6E0); details: data not shown
# Mst3b, sequence (Q9Y6E0 whole entry): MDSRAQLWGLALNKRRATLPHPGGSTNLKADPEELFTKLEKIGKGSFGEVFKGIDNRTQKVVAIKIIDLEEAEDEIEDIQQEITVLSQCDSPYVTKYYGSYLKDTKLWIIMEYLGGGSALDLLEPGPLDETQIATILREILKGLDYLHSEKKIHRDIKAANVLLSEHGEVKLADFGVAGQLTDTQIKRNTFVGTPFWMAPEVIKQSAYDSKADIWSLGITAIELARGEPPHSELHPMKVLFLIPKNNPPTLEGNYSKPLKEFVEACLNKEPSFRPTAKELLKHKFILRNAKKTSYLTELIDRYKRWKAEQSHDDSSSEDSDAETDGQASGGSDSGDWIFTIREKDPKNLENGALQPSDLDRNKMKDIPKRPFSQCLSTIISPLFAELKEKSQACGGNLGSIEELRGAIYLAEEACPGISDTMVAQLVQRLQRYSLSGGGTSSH
activation of Mst3b [4],Molecule,inhibition by 6-thioguanine of inosine- and hypoxanthine-induced axon outgrowth [1],inhibition by 6-thioguanine of inosine- and hypoxanthine-induced axon outgrowth ([1]; listed as 6-thioguanine),inhibition of BDNF stimulated outgrowth ([2]; BDNF 2 ng/ml + 6-thioguanine 20 μM),induction of axonal outgrowth [3],reversal of 6-TG inhibition of BDNF stimulated outgrowth ([2]; BDNF 2 ng/ml + 6-thioguanine 20 μM + hypoxanthine 100 μM),axonal outgrowth (Tau1/MAP2 staining) [2]
,"Nc1nc2nc[nH]c2c(=S)[nH]1 [6-TG, 6-thioguanine, reference compound]",competitively inhibited the actions of both inosine and hypoxanthine,competitively inhibits the actions of both inosine and hypoxanthine,can be inhibited,,,
activates Mst3b,O=c1[nH]cnc2nc[nH]c12 [hypoxanthine],similarly inhibited by 6-TG,,,induced axonal outgrowth similarly to BDNF,inhibition can be overcome; also recorded: inhibition was overcome,cause outgrowth; also recorded: caused axonal outgrowth
,"OC[C@H]1O[C@@H](n2cnc3c(O)ncnc32)[C@H](O)[C@@H]1O [inosine, reference compound]",similarly inhibited by 6-TG,,,induced axonal outgrowth similarly to BDNF,,
,"BDNF: brain derived neurotrophic factor (protein, UniProt P23560 19-247, looked up) Neurotrophic factor BDNF …: APMKEANIRGQGGLAYPGVRTHGTLESVNGPKAGSRGLTSLADTFEHVIEELLDEDQKVRPNEENNKDADLYTSRVMLSSQVPLEPPLLFLLEEYKNYLDAANMSMRVRRHSDPARRGELSVCDSISEWVTAADKKTAVDMSGGTVTVLEKVPVSKGQLKQYFYETKCNPMGYTKEGCRGIDKRHWNSQCRTTQSYVRALTMDSKKRIGWRFIRIDTSCVCTLTIKRGR",,,,,,cause outgrowth; also recorded: caused axonal outgrowth
